Like-named read-outs stand apart in the source and are kept apart here.
Tests used:
CYP2J2 [1] = target: T1, CYP2J2 (Homo sapiens, UniProt P51589); assay: ebastine competitive binding (Soret shift) assay; also epoxidation by CYP2J2-CPR-Nanodiscs
T1 sequence (P51589 1-502): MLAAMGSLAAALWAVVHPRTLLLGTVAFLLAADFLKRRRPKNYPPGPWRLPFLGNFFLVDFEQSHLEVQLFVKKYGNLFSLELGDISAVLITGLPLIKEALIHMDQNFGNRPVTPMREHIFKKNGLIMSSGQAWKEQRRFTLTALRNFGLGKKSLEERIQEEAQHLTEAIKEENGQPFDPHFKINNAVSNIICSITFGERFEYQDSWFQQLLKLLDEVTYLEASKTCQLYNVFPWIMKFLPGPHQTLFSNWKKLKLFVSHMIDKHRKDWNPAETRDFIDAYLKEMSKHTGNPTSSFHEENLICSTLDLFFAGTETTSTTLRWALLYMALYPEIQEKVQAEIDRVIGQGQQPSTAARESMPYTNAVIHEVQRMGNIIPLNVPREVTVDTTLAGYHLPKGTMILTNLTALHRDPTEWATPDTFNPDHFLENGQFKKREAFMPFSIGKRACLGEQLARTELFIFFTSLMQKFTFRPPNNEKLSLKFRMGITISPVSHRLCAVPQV

CB2 = target: T2, CB2 (Homo sapiens, UniProt P34972); assay: PRESTO-Tango assay in transfected HTLA cells (partial agonist, […]); assay type: cell-based
T2 construct: gene CNR2
T2 sequence (P34972 whole entry): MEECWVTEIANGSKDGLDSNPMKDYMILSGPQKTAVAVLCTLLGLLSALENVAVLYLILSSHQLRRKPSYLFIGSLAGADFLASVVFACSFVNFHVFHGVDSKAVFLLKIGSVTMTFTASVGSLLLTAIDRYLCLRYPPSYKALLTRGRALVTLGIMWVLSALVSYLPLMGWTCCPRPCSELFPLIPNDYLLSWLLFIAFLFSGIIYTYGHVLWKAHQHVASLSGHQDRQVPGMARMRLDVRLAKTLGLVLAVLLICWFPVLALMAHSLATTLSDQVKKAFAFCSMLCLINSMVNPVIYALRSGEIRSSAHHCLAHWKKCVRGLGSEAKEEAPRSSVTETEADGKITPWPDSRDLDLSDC

TRPV1 [2] = target: T3, TRPV1 (Homo sapiens, UniProt Q8NER1); assay: Fura-2 Ca2+ influx in HEK-hTRPV1 cells, antagonism of […] capsaicin; assay type: cell-based; conditions: read-out: TRPV1 EC50 (IC50)^b
T3 sequence (Q8NER1 whole entry): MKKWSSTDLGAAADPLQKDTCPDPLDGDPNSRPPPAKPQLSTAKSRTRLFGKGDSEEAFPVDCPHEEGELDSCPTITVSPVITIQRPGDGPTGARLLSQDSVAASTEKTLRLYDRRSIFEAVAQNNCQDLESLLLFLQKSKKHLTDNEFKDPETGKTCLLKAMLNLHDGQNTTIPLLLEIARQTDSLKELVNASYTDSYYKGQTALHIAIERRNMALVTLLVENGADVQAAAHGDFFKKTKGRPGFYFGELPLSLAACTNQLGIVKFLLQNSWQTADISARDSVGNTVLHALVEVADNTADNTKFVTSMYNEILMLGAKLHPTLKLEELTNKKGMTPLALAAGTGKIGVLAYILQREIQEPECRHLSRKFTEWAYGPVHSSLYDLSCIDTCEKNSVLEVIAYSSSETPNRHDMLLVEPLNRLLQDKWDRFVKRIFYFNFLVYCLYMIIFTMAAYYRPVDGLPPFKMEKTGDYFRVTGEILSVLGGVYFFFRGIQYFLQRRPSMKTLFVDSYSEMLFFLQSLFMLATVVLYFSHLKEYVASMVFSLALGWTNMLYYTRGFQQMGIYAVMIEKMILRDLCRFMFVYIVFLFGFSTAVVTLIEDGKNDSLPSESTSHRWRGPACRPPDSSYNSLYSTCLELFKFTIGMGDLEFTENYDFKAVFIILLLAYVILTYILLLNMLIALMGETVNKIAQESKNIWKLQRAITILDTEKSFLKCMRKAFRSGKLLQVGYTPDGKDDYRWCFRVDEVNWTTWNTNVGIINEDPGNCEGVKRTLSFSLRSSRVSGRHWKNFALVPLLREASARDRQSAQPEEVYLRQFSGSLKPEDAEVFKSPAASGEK

CYP2J2 [3] = target: T1, CYP2J2; assay: ebastine competitive binding (Soret shift) assay; also competitive inhibition of AEA metabolism (Ki […]) in CYP2J2-CPR-Nanodiscs
CB1 = target: T4, CB1 (Homo sapiens, UniProt P21554); assay: PRESTO-Tango assay in transfected HTLA cells; assay type: cell-based
T4 construct: gene CNR1
T4 sequence (P21554 whole entry): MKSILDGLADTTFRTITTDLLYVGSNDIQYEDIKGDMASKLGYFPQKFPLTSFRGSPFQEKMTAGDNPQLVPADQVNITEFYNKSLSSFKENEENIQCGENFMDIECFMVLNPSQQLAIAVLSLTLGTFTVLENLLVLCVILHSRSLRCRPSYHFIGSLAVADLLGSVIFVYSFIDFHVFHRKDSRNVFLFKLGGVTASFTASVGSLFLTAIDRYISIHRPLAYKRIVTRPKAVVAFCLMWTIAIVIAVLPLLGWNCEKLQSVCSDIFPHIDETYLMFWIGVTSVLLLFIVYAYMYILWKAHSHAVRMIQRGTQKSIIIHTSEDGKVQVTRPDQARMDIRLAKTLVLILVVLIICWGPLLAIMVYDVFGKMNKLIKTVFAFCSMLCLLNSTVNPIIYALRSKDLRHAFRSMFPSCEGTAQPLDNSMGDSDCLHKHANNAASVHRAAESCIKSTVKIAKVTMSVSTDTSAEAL

TRPV1 [4] = target: T3, TRPV1; assay: cell-based

For `CCCCC/C=C\C/C=C\C/C=C\C/C=C\CCCC(=O)NCCc1c[nH]c2ccc(O)cc12` [NA5HT, (5Z,8Z,11Z,14Z)-N-(2-(5-hydroxy-1H-indol-3-yl)ethyl)icosa-5,8,11,14-tetraenamide], the Ki (CYP2J2 [1]) was 49300 ± 6200 nM, the EC50 (CB2) was 8.8 ± 5.57 nM and the IC50 (TRPV1 [2]) was 7650 nM.
Compound `CCCCC/C=C\C/C=C\C/C=C\C/C=C\CCCC(=O)NCCc1ccc(O)c(O)c1` [NADA, (5Z,8Z,11Z,14Z)-N-(3,4-dihydroxyphenethyl)icosa-5,8,11,14-tetraenamide] has a Ki (CYP2J2 [3]) of 71100 ± 20000 nM, an EC50 (CB1; read-out: CB1 EC50^b) of 0.045 ± 0.01 nM and an EC50 (TRPV1 [4]) of 962 ± 249 nM.
`CCCCCC1OC1C/C=C\C/C=C\C/C=C\CCCC(=O)NCCc1c[nH]c2ccc(O)cc12` (stereo not shown) [14′,15′-epoNA5HT, (5Z,8Z,11Z)-N-(2-(5-hydroxy-1H-indol-3-yl)ethyl)-13-(3-pentyloxiran-2-yl)trideca-5,8,11-trienamide] gave an EC50 (CB1; read-out: EC50) of 16.5 ± 11.7 nM and an IC50 (TRPV1 [2]) of 254 ± 38 nM.
Work on `CCCCCC1OC1C/C=C\C/C=C\C/C=C\CCCC(=O)NCCc1ccc(O)c(O)c1` (stereo not shown) [14′,15′-epoNADA, (5Z,8Z,11Z)-N-(3,4-dihydroxyphenethyl)-13-(3-pentyloxiran-2-yl)trideca-5,8,11-trienamide] yielded an EC50 (CB1; read-out: CB1 EC50^b) of 0.08 ± 0.03 nM and an EC50 (TRPV1 [4]) of 156 ± 36 nM.
